Source: patent publication US20070073056A1, “4-Substituted Pyrazoline Compounds, their Preparation and Use as Medicaments” (LABORATORIOS DEL DR. ESTEVE, S.A., priority 2005, published 2007)
Counter-ions that a name gives are not always drawn. Like-named read-outs stand apart in the source and are kept apart here.

Columns and labels:
CB1-receptor [1] = target: CB1-receptor (UniProt P20272); test: binding of the pyrazoline compounds to CB1-receptors (Pharmacological Methods, Part I); design: IC50; species or system human or rat
Procedure: I. In-vitro Determination of Affinity to CB1/CB2-Receptors
The in-vitro determination of the affinity of the inventive 4-substituted pyrazoline compounds to CB1/CB2-Rezeptors is carried out as described in the publication of Ruth A. Ross, Heather C. Brockie et al., “Agonist-inverse agonist characterisation at CB1 and CB2 cannabinoid receptors of L-759633, L759656 and AM630”, British Journal of Pharmacology, 126, 665-672, (1999), whereby the transfected human CB1 and CB2 receptors of Receptor Biology, Inc. are used. The radioligand used for both receptors is [^3H]-CP55940. The respective parts of the description is hereby incorporated by reference and forms part of the present disclosure.
Rat Cerebellum CB1 Binding
Binding affinity to CB1 receptor was evaluated according to a modification of the method described by Govaerts et al., Eur J Pharmac Sci 23, 233-243 (2004). The respective parts of the description is hereby incorporated by reference and forms part of the present disclosure.
Briefly, cerebellum from male wistar rats (250-300 g) were carefully dissected on ice and homogenates were prepared with Potter-Helveheim in a cold 50 mM Tris-HCl solution containing 5 mM MgCl2, 1 mM EDTA and 0.25 M sucrose, pH 7.4. The suspension was centrifuged at […] for 5 minutes. The supernatants were collected and centrifuged 50,000×g for 15 minutes. The resulting pellets were then resuspended in Tris-HCl buffer without sucrose, homogenized and incubated for 15 min at 37° C. in an orbital shaker bath and centrifuged again at 50,000×g for 15 min. Pellets were weighted, resuspended in Tris-HCl buffer without sucrose, homogenized with Ultraturrax at 13,500 rpm for 3×5 seconds and alicuoted in 0.9 ml volumes in Eppendorf tubes. Alicuotes were centrifuged at 20,800×g for 5 minutes, supernatants discarded and pellets were frozen at −80° C. until use. Total protein concentration was determined using the Bio-Rad Lowry method based kit. Competitive binding experiments were performed in presence of 1 nM [^3H]-CP 55,940 in siliconized glass tubes containing 100 μg protein/tube resuspended in 1 ml final volume of 50 mM Tris-HCl, 5 mM MgCl2, 1 mM EDTA, 0.5% (w/v) bovine serum albumin, pH 7.4. Compounds were present at various concentrations and the non specific binding was determined in the presence of 10 μM HU-210. After 1 hour incubation at 30° C., the suspension was rapidly filtered through 0.5% PEI pre-treated GF/B fiber filters on a 96-well harvester and washed 3 times with 3 ml ice-cold binding buffer without bovine serum albumin. Radioactivity on filters was measured with Wallac Winspectral 1414 counter by liquid scintillation in 6 ml Ecoscint H (National Diagnostics, U.K.). Assays were made in triplicates.
Binding data were analyzed by non-linear regression with the software GraphPad Prism Version 3.03.
The binding of the pyrazoline compounds of general formula I to CB1-receptors was determined according to the method described in the section Pharmacological Methods, Part I.

CB1-receptor [2] = target: CB1-receptor (UniProt P20272); test: as above; design: other: 10^−7 M; other: 10^−8 M; species or system human or rat
Procedure, shortened: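 Rat cerebellum membranes (male Wistar), 100 μg protein, competed against 1 nM [3H]-CP 55,940 in 50 mM Tris-HCl, 5 mM MgCl2, 1 mM EDTA, 0.5% BSA, pH 7.4; 1 h at 30 °C. Non-specific binding with 10 μM HU-210; filtration and scintillation counting, triplicates, non-linear regression.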

[3] = radioligand [3H]-CP55940, read-out: IC50

Row | IC50 (CB1-receptor [1]; [3]) [nM] | Inhibition (CB1-receptor [2]; 10^−7 M) [%] | Inhibition (CB1-receptor [2]; 10^−8 M, in %) | IC50 (CB1-receptor [1]; radioligand [3H]-CP55940, hydrochloride, read-out: IC50) [nM] | SMILES | IC50 (CB1-receptor [1]; radioligand [3H]-CP55940) [nM]
1 | 25.1 | 70.6 | 27.6 | – | C[C@H]1C(C(=O)NN2CC3CCCC3C2)=NN(c2ccc(Cl)cc2Cl)[C@H]1c1ccc(Cl)cc1 (relative stereo) [Example 13, cis-5-(4-Chloro-phenyl)-1-(2,4-dichloro-phenyl)-4-methyl-4,5-dihydro-1H-pyrazole-3-carboxylic acid (hexahydro-cyclopenta[c]pyrrol-2-yl)-amide] | –
2 | 7.9 | 80 | 65 | – | C[C@H]1C(C(=O)NN2CCCCCC2)=NN(c2ccc(Cl)cc2Cl)[C@H]1c1ccc(Cl)cc1.Cl (relative stereo) [Example 96, cis-5-(4-Chlorophenyl)-1-(2,4-dichlorophenyl)-4-methyl-4,5-dihydro-1H-pyrazole-3-carboxylic acid azepan-1-ylamide hydrochloride] | –
3 | 128 | 55.5 | 24.7 | – | CC1Cc2ccccc2N1NC(=O)C1=NN(c2ccc(Cl)cc2Cl)[C@@H](c2ccc(Cl)cc2)[C@H]1C (relative stereo) [Example 113, cis-5-(4-chlorophenyl)-1-(2,4-dichlorophenyl)-4-methyl-N-(2-methylindolin-1-yl)-4,5-dihydro-1H-pyrazole-3-carboxamide] | –
4 | 51.4 | 73.7 | 19.5 | – | C[C@@H]1C(C(=O)NC2CCCCCCC2)=NN(c2ccc(Cl)cc2Cl)[C@@H]1c1ccc(Cl)cc1 (relative stereo) [Example 119, cis-5-(4-chlorophenyl)-N-cyclooctyl-1-(2,4-dichlorophenyl)-4-methyl-4,5-dihydro-1H-pyrazole-3-carboxamide] | –
5 | 31.9 | 90.8 | 39.9 | – | C[C@H]1C(C(=O)NC2CCCCCC2)=NN(c2ccc(Cl)cc2Cl)[C@H]1c1ccc(Cl)cc1 (relative stereo) [Example 123, cis-5-(4-chlorophenyl)-N-cycloheptyl-1-(2,4-dichlorophenyl)-4-methyl-4,5-dihydro-1H-pyrazole-3-carboxamide] | –
6 | 30 | 69.8 | 37.2 | – | C[C@H]1C(C(=O)NC2CCCCCC2)=NN(c2ccc(Cl)cc2Cl)[C@H]1c1ccc(Br)cc1 (relative stereo) [Example 211, cis-5-(4-bromophenyl)-N-cycloheptyl-1-(2,4-dichlorophenyl)-4-methyl-4,5-dihydro-1H-pyrazole-3-carboxamide] | –
7 | 112 | 50.5 | 23.2 | – | C[C@H]1C(C(=O)NC2CCCCCC2)=NN(c2ccc(Cl)cc2Cl)[C@H]1c1ccc(F)cc1 (relative stereo) [Example 231, cis-N-cycloheptyl-1-(2,4-dichlorophenyl)-5-(4-fluorophenyl)-4-methyl-4,5-dihydro-1H-pyrazole-3-carboxamide] | –
8 | – | 62 | 29.2 | 60 | COc1ccc([C@@H]2[C@H](C)C(C(=O)NN3CCCCC3)=NN2c2ccc(Cl)cc2Cl)cc1.Cl (relative stereo) [Example 265, cis-1-(2,4-dichlorophenyl)-5-(4-methoxyphenyl)-4-methyl-N-(piperidin-1-yl)-4,5-dihydro-1H-pyrazole-3-carboxamide hydrochloride] | –
9 | 19 | 62.4 | 14.7 | – | COc1ccc([C@@H]2[C@H](C)C(C(=O)NN3CCc4ccccc43)=NN2c2ccc(Cl)cc2Cl)cc1 (relative stereo) [Example 279, cis-1-(2,4-dichlorophenyl)-N-(indolin-1-yl)-5-(4-methoxyphenyl)-4-methyl-4,5-dihydro-1H-pyrazole-3-carboxamide] | –
10 | 112 | 74.5 | 27.0 | – | C[C@H]1C(C(=S)NN2CCCCC2)=NN(c2ccc(Cl)cc2Cl)[C@H]1c1ccc(Cl)cc1 (relative stereo) [Example 379, cis-5-(4-chlorophenyl)-1-(2,4-dichlorophenyl)-4-methyl-N-(piperidin-1-yl)-4,5-dihydro-1H-pyrazole-3-carbothioamide hydrochloride] | –
11 | 82 | 58.1 | 42.4 | – | COc1ccc([C@@H]2[C@H](C)C(C(=O)NN3CCCCC3)=NN2c2ccc(Cl)cc2Cl)cc1 (relative stereo) [Example 410, cis-1-(2,4-dichlorophenyl)-5-(4-methoxyphenyl)-4-methyl-N-(piperidin-1-yl)-4,5-dihydro-1H-pyrazole-3-carboxamide] | –
12 | 160 | – | – | – | C[C@@H]1C(C(=O)NN2CCCCC2)=NN(c2ccc(Cl)cc2Cl)[C@@H]1c1ccc(Cl)s1 (relative stereo) [Example 427, cis-5-(5-chlorothiophen-2-yl)-1-(2,4-dichlorophenyl)-4-methyl-N-(piperidin-1-yl)-4,5-dihydro-1H-pyrazole-3-carboxamide hydrochloride] | –
13 | 79 | – | – | – | C[C@@H]1C(C(=O)NN2CCCCC2)=NN(c2ccc(Cl)cc2Cl)[C@H]1c1ccc(Cl)cc1 (relative stereo) [Example 431, trans-5-(4-chlorophenyl)-1-(2,4-dichlorophenyl)-4-methyl-N-(piperidin-1-yl)-4,5-dihydro-1H-pyrazole-3-carboxamide] | –
14 | 89 | – | – | – | C[C@@H]1C(C(=O)NN2CCCCC2)=NN(c2ccc(Cl)cc2Cl)[C@@H]1c1ccc(Cl)cc1 (relative stereo) [Example 434, cis-5-(4-chlorophenyl)-1-(2,4-dichlorophenyl)-4-methyl-N-(piperidin-1-yl)-4,5-dihydro-1H-pyrazole-3-carboxamide] | –

Row | SMILES | IC50 (CB1-receptor [1]; [3]) [nM] | Inhibition (CB1-receptor [2]; 10^−7 M) [%] | Inhibition (CB1-receptor [2]; 10^−8 M, in %) | IC50 (CB1-receptor [1]; radioligand [3H]-CP55940, hydrochloride, read-out: IC50) [nM] | IC50 (CB1-receptor [1]; radioligand [3H]-CP55940) [nM]
15 | CC1CCCC(C)N1NC(=O)C1=NN(c2ccc(Cl)cc2Cl)[C@H](c2ccc(Cl)cc2)[C@@H]1C (relative stereo) [Example 103, cis-5-(4-chlorophenyl)-1-(2,4-dichlorophenyl)-N-(2,6-dimethylpiperidin-1-yl)-4-methyl-4,5-dihydro-1H-pyrazole-3-carboxamide] | 60.6 | 55.3 | 19.5 | – | –
16 | C[C@H]1C(C(=O)NN2CCCCCC2)=NN(c2ccc(Cl)cc2Cl)[C@H]1c1ccc(Br)cc1.Cl (relative stereo) [Example 207, cis-N-(azepan-1-yl)-5-(4-bromophenyl)-1-(2,4-dichlorophenyl)-4-methyl-4,5-dihydro-1H-pyrazole-3-carboxamide hydrochloride] | 71 | 73 | 48.3 | – | –
17 | COc1ccc([C@H]2[C@@H](C)C(C(=O)NN3CCCCCC3)=NN2c2ccc(Cl)cc2Cl)cc1.Cl (relative stereo) [Example 271, cis-N-(azepan-1-yl)-1-(2,4-dichlorophenyl)-5-(4-methoxyphenyl)-4-methyl-4,5-dihydro-1H-pyrazole-3-carboxamide hydrochloride] | 61 | 73.5 | 30.6 | – | –
18 | COc1ccc([C@H]2[C@@H](C)C(C(=O)NC3CCCCCC3)=NN2c2ccc(Cl)cc2Cl)cc1 (relative stereo) [Example 275, cis-N-cycloheptyl-1-(2,4-dichlorophenyl)-5-(4-methoxyphenyl)-4-methyl-4,5-dihydro-1H-pyrazole-3-carboxamide] | – | 69.1 | 26.1 | – | 66
19 | COc1ccc([C@H]2[C@@H](C)C(C(=O)NN3CC4CCCC4C3)=NN2c2ccc(Cl)cc2Cl)cc1.Cl (relative stereo) [Example 277, cis-1-(2,4-dichlorophenyl)-N-(hexahydrocyclopenta[c]pyrrol-2(1H)-yl)-5-(4-methoxyphenyl)-4-methyl-4,5-dihydro-1H-pyrazole-3-carboxamide hydrochloride] | 20 | 61.6 | 17.9 | – | –
